Measurements: a melting point compilation (Tetko et al.; mined from patent text by program, amines drawn as free bases though some values may be those of a salt)

Compared with CCc1nc(C)cn1-c1cc2c(cc1Cl)[nH]c(=O)c1n[nH]c(=O)n12, CCOC(=O)/C=C/c1cc2nc(CC)n(CCc3ccccc3)c(=O)c2cc1F is lower in melting point: 273 to 275 °C for the first, 140 to 142 °C for the second.

First: O=C(NCc1ccccc1)c1cnc(-c2ccccc2)nc1S
Second: COc1ccc(-c2nc(CNC(=O)OCc3ccccc3)sc2-c2cccnc2)cc1
The melting point of the first is higher: 189 to 193 °C for the first, 93 to 94 °C for the second.

Compared with CC(C)(C)OC(=O)N1C[C@@H](O)C[C@H]1C(=O)OCc1ccccc1, CC(C)(C)OC(=O)CN1C(=O)C(NC(=O)OCc2ccccc2)C1CCC(=O)O (stereo not drawn) is higher in melting point: 72 to 73 °C for the first, 118 to 120 °C for the second.

Compared with CCOP(=O)(/C=C/c1cn(-c2ccccc2)nc1OCc1ccc(OCc2nc(-c3ccc(OC)c(C(=O)OC)c3)oc2C)c(OC)c1)OCC, COc1cc(COc2nn(-c3ccccc3)cc2C=O)ccc1OCc1csc(N2CCOCC2)n1 is lower in melting point: 144 to 145 °C for the first, 128 to 129 °C for the second.

First: CCOC(=O)c1c(-c2ccccc2)nc2c(C(F)(F)F)cccc2c1O
Second: Cc1nnc2n1-c1ccccc1C(c1ccccc1C(F)(F)F)OC2 (stereo not drawn)
The melting point of the first is lower: 114 °C for the first, 265 to 269 °C for the second.

Compared with O=c1ccn([C@H]2C=C[C@@H](O)C2)cc1 (racemic), N#Cc1c(C(=O)NC2CC2)cnn1-c1ccc(Cl)cc1 is higher in melting point: 188 to 189 °C for the first, 204 to 206 °C for the second.

Compared with CC(C)n1nc(-c2sc(N(C)C)nc2-c2ccccc2)ccc1=O, c1ccc(-c2cccc(-n3cnc4cccnc43)c2)cc1 is lower in melting point: 158 to 160 °C for the first, 89 to 91 °C for the second.

Compared with O=C(O)c1cc(C(=O)O)c2c(Cl)cc(Cl)cc2n1, O=C(O)c1ccc2c(c1)CCc1ccc(C(=O)O)cc1S2(=O)=O is higher in melting point: 246 °C for the first, 350 to 352 °C for the second.

First: CC(C)Oc1ccc(/C=C(\NC(=O)c2ccc(OCCCCC3CC3)cc2)C(=O)NCCO)cc1
Second: O=C(NCCOc1ccc(CC(Oc2cc(F)cc(F)c2)C(=O)O)cc1)c1ccc(-c2ccccn2)cc1 (stereo not drawn)
The melting point of the first is lower: 53 to 55 °C for the first, 150 to 151 °C for the second.

First: CCOC(=O)c1cc(-c2nccs2)[nH]c1C(CC1CCOCC1)c1ccc(S(=O)(=O)C2CC2)cc1 (stereo not drawn)
Second: O=C(CCc1ccc(NC2=NCCN2)cc1)c1ccc(N2CCOCC2)cc1F
The melting point of the first is higher: 178 to 179 °C for the first, 168 to 171 °C for the second.

First: Clc1cccc2c3c([nH]c12)CCCC3
Second: O=C(Nc1cccnc1)N1CCc2ccc(Cl)c(Cl)c21
The melting point of the first is lower: 144 to 146 °C for the first, 178 to 180 °C for the second.

Compared with COCCCCC(O)(c1ccccc1)c1ccccc1, CC(=O)OCC[Si](c1ccccc1)(c1ccccc1)c1ccccc1 is lower in melting point: 112 to 115 °C for the first, 67 to 68 °C for the second.

First: N#Cc1ccc2c(c1)COC2(c1ccc(F)cc1)c1ccc(F)cc1
Second: NC(=O)c1cccc(-c2ccc(Oc3ccc(F)cc3)cc2)n1
The melting point of the first is lower: 105 to 106 °C for the first, 150 to 152 °C for the second.

First: CN1Cc2c(-c3nnc(CN)o3)ncn2-c2ccsc2C1=O
Second: CNC(=O)N1N=C(c2ccc(N)cc2)c2cc3c(cc2CC1C)OCO3 (stereo not drawn)
The melting point of the first is higher: 217 to 219 °C for the first, 133 to 135 °C for the second.

First: O=C1c2c(O)cccc2C(SCCO)c2cccc(O)c21
Second: Cc1cc(Sc2ccc(O)c(C)c2)ccc1O
The melting point of the first is higher: 146 to 147 °C for the first, 124 °C for the second.

Compared with C=CCNc1nc(C2C(=O)Nc3ccc(C#N)cc32)c2cn(C3CCCC3)nc2n1 (stereo not drawn), C=CCn1cc2cc3ncc(-c4ccc(OC)c(F)c4)nc3cc2n1 is lower in melting point: over 300 °C for the first, 196 to 200 °C for the second.

Compared with CCCC(CCC)(CC(=O)Nc1cccc(OCc2ccc3ccc(F)cc3n2)c1)C(=O)O, Cc1cccc(COc2cccc(OCc3ccc(C(C)C)cc3)c2)c1C(=O)O is lower in melting point: 155 to 156 °C for the first, 132 to 133 °C for the second.

First: COC(=O)C(CC(=O)N1CCOCC1)Oc1ccccc1 (stereo not drawn)
Second: CCn1cc(C(=O)NCc2ccc(Cl)cc2)c(=O)c2cc(C#CCOC(=O)CN3CCOCC3)sc21
The melting point of the first is lower: 83 to 84 °C for the first, 168 to 170 °C for the second.

Compared with O=c1ccc2ccc(OCCCCl)cc2o1, CCCS(=O)c1cc(OCCOc2ccccc2)ccc1C (stereo not drawn) is higher in melting point: 100 to 102 °C for the first, 115 to 116 °C for the second.

Compared with Cc1cccc(-c2nc(C(C)C)[nH]c2-c2cccc(-c3ccc(C(=O)N4CCS(=O)CC4)cc3)c2)n1, Cc1cccc(-c2nc3c(C)cccn3c2-c2ccnc(-c3ccc(OCC(N)=O)cc3)c2)n1 is higher in melting point: 136 to 140 °C for the first, 183 °C for the second.

Compared with CCCCN(Cc1ccc(-c2ccccc2-c2nnn[nH]2)cc1)c1nc(C)cc(C)n1, CCCCc1nc2ccc(C(=O)O)cc2n1Cc1ccc(-c2ccccc2-c2nnn[nH]2)cc1 is higher in melting point: 148 to 150 °C for the first, 258 to 259 °C for the second.

Compared with CNC(=S)Nc1ccc2c(c1)C(=O)NC(=O)C2(C)C, CC1(C)C(=O)Nc2ccccc2NC1=O is higher in melting point: 206 to 207 °C for the first, over 270 °C for the second.

First: Cc1cc(-n2nc(C(F)(F)F)cc2-c2ccc(S(C)(=O)=O)cc2)ccc1F
Second: COc1nc(Br)cnc1NS(=O)(=O)c1ccccc1-c1ccc(C)cc1
The melting point of the first is lower: 134 to 136 °C for the first, 204 to 206 °C for the second.

Compared with O=C1NC(=O)c2c1c(-c1ccccc1)c(-c1ccccc1)c1[nH]c3ccc(O)cc3c21, CN(Cc1cccc(-c2ccc(CC3SC(=O)NC3=O)cc2)c1)C(=O)Cc1ccccc1 (stereo not drawn) is lower in melting point: over 300 °C for the first, 73 °C for the second.

First: Cc1cc(Oc2ccc(C(F)(F)F)cc2Cl)cc(Cl)n1
Second: COC(=O)C(C)(C)OCc1cc2cc(C(F)(F)F)ccc2n1S(=O)(=O)c1ccc2c(c1)OCCO2
The melting point of the first is lower: 75 °C for the first, 128 to 130 °C for the second.

First: CC(Cn1ccnn1)n1nnc2cc3c(=O)n(C(C)Cn4ccnn4)nnc3cc2c1=O (stereo not drawn)
Second: CC(C)NCC(O)COc1ccc(-c2cc3ncccc3c(=O)n2C)cc1 (stereo not drawn)
The melting point of the first is higher: 192 to 195 °C for the first, 135 to 139 °C for the second.

First: Cn1c(=O)c2[nH]c(CCCC(=O)O)nc2n(C)c1=O
Second: COc1cc2nc(=O)n3[nH]cnc3c2cc1OC
The melting point of the first is lower: 254 to 255 °C for the first, 320 to 325 °C for the second.

First: CCCC1=CC(C)(C)Oc2c(OCC)cc(Cc3cnc(N)nc3N)cc21
Second: CCOc1ccccc1C(=O)Nc1ccc2oc(Nc3ccc(CC)cc3)nc2c1
The melting point of the first is higher: 208 to 209 °C for the first, 182 °C for the second.

Compared with COc1ccc(C(=O)Nc2ccccc2)cc1NC(=S)Nc1c(F)c(F)cc(F)c1F, COc1cc(C(=O)c2cnc3ccccc3c2)ccc1O is higher in melting point: 170 to 174 °C for the first, 196 to 197 °C for the second.

Compared with Cc1cccc(C)c1N(CCCC(=O)N[C@@H](CO)C(=O)O)C(=O)c1ccc(Cl)cc1, N#Cc1ccc(C(=O)c2ccc(O)c(CC(=O)O)c2)cc1 is higher in melting point: 147 to 148 °C for the first, 218 °C for the second.

First: O=C(Nc1ccc(Oc2ccnc(NCCN3CCCCC3)n2)c2ccccc12)c1cc(F)cc(N2CCOCC2)c1
Second: COc1cc(CNC(=O)c2ccc3n2Cc2ccccc2N(C(=O)COc2ccc(Cl)cc2C)C3)ccc1O
The melting point of the first is lower: 98 to 100 °C for the first, 167 to 168 °C for the second.

CSc1sc(C(N)=O)c2c1-c1oc(C)nc1CC2 and O=C(O)c1cn2c3c(c(Cl)c(F)cc3c1=O)SCC2 cannot be ordered by melting point: over 300 °C for the first, 322 to 324 °C for the second.

Compared with COc1cc(CC(=O)N[C@@H](COC(=O)C(C)(C)C)Cc2ccccc2)ccc1OCCN, COC(=O)c1ccccc1COc1ccc(CCCO)cc1 is lower in melting point: 70 to 74 °C for the first, 50.5 to 52 °C for the second.

First: COc1ccc(COc2cccc(C=O)c2)cc1
Second: COc1ccc(-c2nc(S(=O)c3ccccc3)[nH]c2-c2ccc(OC)cc2)cc1 (stereo not drawn)
The melting point of the first is lower: 78 °C for the first, 188 to 190 °C for the second.

First: c1ccc(COc2cnc(N3CCNCC3)nc2)cc1
Second: c1ccc2c(NC3CCCCC3)nnc(Cc3ccncc3)c2c1
The melting point of the first is lower: 94 to 97 °C for the first, 137 to 139 °C for the second.

Compared with CCNC(=O)c1sc(I)cc1[Si](C)(C)C, Cc1cc(C(C)(C)CCl)c(C)nn1 is lower in melting point: 85 to 88 °C for the first, 57 to 59 °C for the second.

First: COC(=O)c1ccc(NCCCCCCCCCCCCCCCCBr)cc1
Second: O=C(OCCCCCCO)c1ccc(Oc2c3c(c(Oc4ccc(C(=O)OCCCCCCO)cc4)c4ccccc24)C(=O)c2ccccc2C3=O)cc1
The melting point of the first is lower: 92 to 93 °C for the first, 172 to 173 °C for the second.

First: O=C(O)CC(Cc1ccccc1)NC(=O)C1Cc2ccccc2N1S(=O)(=O)c1ccc(-c2ccc(F)cc2)cc1 (stereo not drawn)
Second: O=C(O)COc1ccc2cc(-c3cnc(-c4cn(Cc5ccccc5)c5ccccc45)o3)ccc2c1
The melting point of the first is lower: 87 to 90 °C for the first, 238 to 242 °C for the second.

First: CNC(=O)[C@H](Cc1cncn1C)NC(=O)C(Cc1cccc2ccccc12)Cc1cccc2ccccc12
Second: CN(C)c1cccc(C(=C2CN(C(c3ccccc3)c3ccccc3)C2)S(C)(=O)=O)c1
The melting point of the first is higher: 250 to 252 °C for the first, 176 °C for the second.

First: CCOc1ccc(C23CNCC2C3)cc1 (stereo not drawn)
Second: O=[N+]([O-])c1ccc(OS(=O)(=O)c2ccccc2I)cc1
The melting point of the first is lower: 48 to 49 °C for the first, 131 to 133 °C for the second.

Compared with NCC1Cc2cc(F)cc(-c3ccncc3)c2O1 (stereo not drawn), N#Cc1cc(C(=O)NNC(=O)c2occ(-c3ccncc3)c2-c2ccccc2)ccc1O is higher in melting point: 170 to 171 °C for the first, 179 to 181 °C for the second.

Compared with CC(C)(C)OC(=O)NC1C=C(C(=O)O)OC1 (stereo not drawn), CC(C)Nc1cccnc1N1CCN(C(=O)c2ccc(C(=O)NC(CO)CO)cc2)CC1 is higher in melting point: 117 to 120 °C for the first, 147 to 149 °C for the second.

First: O=C1c2ccccc2C(=O)N1Nc1ccc(Br)cc1
Second: CC(=NNc1ccc(-c2c[nH]c(=O)cn2)cc1)c1ccncc1
The melting point of the first is higher: 205 to 206 °C for the first, 175 to 179 °C for the second.

Compared with COC(=O)c1ccc(NS(=O)(=O)c2ccc(Oc3cccc(Cl)c3C#N)cc2)cn1, CN(C)c1ccc(CNc2ccc(Cl)c(Cl)c2)cc1 is lower in melting point: 153 to 155 °C for the first, 117 °C for the second.

First: Clc1nc2ccccc2cc1CBr
Second: Cc1noc(CC(=O)Nc2ccccc2Cl)n1
The melting point of the first is higher: 125 °C for the first, 118 to 120 °C for the second.

First: Fc1ccc(Br)c2ccsc12
Second: CC(=O)/C=C/Sc1ccc2ccccc2c1
The melting point of the first is lower: 47 to 48 °C for the first, 62 to 64 °C for the second.

First: CCn1c(Br)c(Br)c(C#N)c1Br
Second: CC(=O)NCCc1cnn2ccc3c(c12)CCO3
The melting point of the first is lower: 108 to 110 °C for the first, 174 to 175 °C for the second.

Compared with COC(=O)COC(=O)C(c1ccccc1)N1CCN(c2ccc(NC(=O)c3ccccc3-c3ccc(C(F)(F)F)cc3)cc2)CC1 (stereo not drawn), O=C(O)Cc1ccc(Cn2nc(-c3ccccc3)c(Cc3cc4c(cc3Cl)OCO4)c2C(=O)O)cc1 is lower in melting point: 106 °C for the first, under 45 °C for the second.

First: CCOC(=O)C1=C(CO)NC(C)=C(C(=O)OCCO)C1c1ccccc1[N+](=O)[O-] (stereo not drawn)
Second: COCCOc1cc2ncnc(Nc3cc(O)c(Cl)cc3F)c2cc1OC
The melting point of the first is lower: 167 to 169 °C for the first, over 250 °C for the second.
